Assay results taken from US20190100794A1, “Blood matrix metalloproteinase 9 (MMP9) is a predictive biomarker for cardiac diseases and disorders” (University of Rochester, priority 2017, published 2019).
Blank lines part the entries; values can stand above or below the compound they belong to.

Columns and labels:
[1] = biological target: T1, platelet cyclooxygenase (COX) (Homo sapiens, UniProt P23219); experiment: Plasma TxB2 concentration by ELISA as marker of aspirin inhibition of platelet cyclooxygenase; type: in vivo; details: STEMI and NSTEMI patients given 325 mg aspirin at least 30 min before blood draw, versus healthy volunteers not treated with aspirin
T1 construct: endogenous in cells; plasma TxB2 measured by ELISA
T1 sequence (P23219 24-599): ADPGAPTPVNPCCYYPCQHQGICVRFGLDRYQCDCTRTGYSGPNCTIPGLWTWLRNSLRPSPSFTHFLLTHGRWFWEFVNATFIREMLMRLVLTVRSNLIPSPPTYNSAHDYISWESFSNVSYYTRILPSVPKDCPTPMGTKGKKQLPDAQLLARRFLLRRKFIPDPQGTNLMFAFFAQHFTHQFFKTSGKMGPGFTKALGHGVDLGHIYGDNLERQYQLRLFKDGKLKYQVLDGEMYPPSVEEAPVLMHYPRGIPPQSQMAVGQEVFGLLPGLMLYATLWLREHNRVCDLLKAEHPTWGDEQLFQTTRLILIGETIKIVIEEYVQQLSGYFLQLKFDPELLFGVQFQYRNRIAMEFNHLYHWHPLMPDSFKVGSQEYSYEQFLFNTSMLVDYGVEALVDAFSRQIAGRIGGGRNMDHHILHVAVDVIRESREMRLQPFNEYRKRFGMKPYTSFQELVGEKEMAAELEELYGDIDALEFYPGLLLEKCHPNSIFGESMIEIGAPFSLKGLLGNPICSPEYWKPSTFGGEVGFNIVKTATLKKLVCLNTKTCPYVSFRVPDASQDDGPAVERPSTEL
Description: Blood was taken from patients immediately upon presentation with STEMI or NSTEMI and compared to healthy volunteer subjects. Each patient had been given 325 mg aspirin at least 30 mins prior to the blood draw. Plasma was isolated and biomarker concentration was evaluated by ELISA. Plasma TxB2 concentration served as a surrogate marker to assess for differences in efficacy of aspirin between groups, comparing this to healthy volunteer subjects (control) not taking aspirin. […] ELISA=Enzyme-Linked Immunosorbant Assay.
Each patient was treated with 325 mg aspirin in the ambulance, in the ED, or hospital least 30 minutes prior to blood draw.
Enzyme-linked immunosorbant assays (ELISAs) were conducted according to the manufacturer's instructions using the sandwich ELISA technique. […] The ELISA for plasma thromboxane B2 (cat#501020) was purchased from Cayman Chemicals.

PAR1 = biological target: T2, PAR1 (Homo sapiens, UniProt P25116); details: triple therapy of DAPT plus vorapaxar, cited from earlier work
T2 construct: Thrombin-Receptor Antagonist Vorapaxar in Acute Coronary Syndromes (TRACER) study; host or cells: patients of a clinical trial (Tricoci P, et al., 2012, N Engl J Med)
T2 sequence (P25116 22-425): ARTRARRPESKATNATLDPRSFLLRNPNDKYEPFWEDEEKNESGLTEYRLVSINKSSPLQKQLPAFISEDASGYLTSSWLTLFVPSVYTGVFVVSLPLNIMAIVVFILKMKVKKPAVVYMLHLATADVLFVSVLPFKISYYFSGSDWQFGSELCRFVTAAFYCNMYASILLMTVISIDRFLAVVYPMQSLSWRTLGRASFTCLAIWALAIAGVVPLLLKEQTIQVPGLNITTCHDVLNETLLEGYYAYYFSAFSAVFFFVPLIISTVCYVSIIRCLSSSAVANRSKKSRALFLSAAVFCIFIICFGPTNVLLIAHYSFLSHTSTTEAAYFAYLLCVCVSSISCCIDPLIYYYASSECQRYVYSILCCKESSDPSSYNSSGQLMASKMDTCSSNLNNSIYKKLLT

ERK5 in platelets = experiment: Platelet activation by FACS P-selectin expression after TRAP6 stimulation, with ERK5 inhibitor pre-incubation; type: cell-based, human; details: platelets from healthy volunteers or NSTEMI patients; BIX 02189 0-100 μM, 30 minutes; TRAP6 10 μM, 15 minutes; P<0.05
Description: (FIG. 4A) All patients were given 325 mg aspirin at least 30 minutes prior to blood draw. Platelets were isolated from healthy volunteer subjects (control) or from patients with STEMI or NSTEMI. ERK5 activation was assessed by Western blotting using a phosphor-specific antibody (P-ERK5). A pan-ERK5 antibody was used to detect total ERK5 and the ratio (P-ERK5/ERK5) was used to report ERK5 activity as mean±SEM, n=10-13. *p<0.05 control vs. STEMI, **p=0.01 control vs NSTEMI. The molecular weight is indicated in kiloDaltons (kDa). (FIG. 4B) All patients were given 325-mg aspirin at least 30 minutes before blood draw. […] Platelet activation was assessed by fluorescence-activated cell sorting by P-selectin expression, mean fluorescence intensity (MFI)±SEM, all performed in quadruplicate in each group, n=4. *P<0.05 between NSTEMI/TRAP6 and NSTEMI/TRAP6+BIX 02189 and **P<0.05 control/TRAP6 and control/TRAP6+BIX 02189.
For each study subject, blood was obtained by a trained medical professional into citrate plasma tubes, then centrifuged in a tabletop centrifuge at 1100 rpm for 15 mins. […] This reaction was then stopped by adding 100 μL of 2% formalin to each reaction, and then quantification of platelet surface P-selectin was made possible using an Accuri Flow Cytometer (BD Biosciences) at 10K events per sample. […] Platelet surface p-selectin was quantified in quadruplicate using the geometric mean. […]

plasma TxB2 concentration [1]: decrease
Compound: CC(=O)Oc1ccccc1C(=O)O [aspirin]

Compound: CCOC(=O)N[C@@H]1CC[C@@H]2[C@@H](C1)C[C@H]1C(=O)O[C@H](C)[C@H]1[C@H]2/C=C/c1ccc(-c2cccc(F)c2)cn1 [vorapaxar]
relative reduction in the primary end point (PAR1; nonsignificant): 8%
bleeding (PAR1): trend toward clinically significant bleeding

Compound: CN(C)Cc1cccc(N/C(=C2\C(=O)Nc3cc(C(=O)N(C)C)ccc32)c2ccccc2)c1 [BIX 02189]
TRAP6-induced platelet activation (P-selectin expression, MFI) (ERK5 in platelets): prevents platelet activation
